Assay results reported in patent publication US9884832B2 (priority 2011, dated 2018).
Like-named read-outs stand apart in the source and are kept apart here.

What was measured:
[1] = target: AM2 S31N (serine→asparagine mutation at residue 31 in the M2 protein) (Influenza A virus, UniProt P0DOF5, S31N); type: cell-based, influenza virus A/Udorn/72
[2] = target: AM2 V27A (valine→alanine mutation at residue 27 in the M2 protein) (Influenza A virus, UniProt P0DOF5, V27A); type: cell-based, influenza virus A/Udorn/72

| Compound | S31N OOcyte Inhibition at 100 uM (%) ([1]; pH 5.5) | V27A OOcyte Inhibition at 100 uM (%) ([2]; pH 5.5) | S31N OOcyte Inhibition at 100 uM (%) [1] | V27A OOcyte Inhibition at 100 uM (%) [2] |
| --- | --- | --- | --- | --- |
| Oc1ccc(CNC23CC4CC(CC(C4)C2)C3)cc1Cl [Example 47, 4-(Adamantan-1-ylaminomethyl)-2-chloro-phenol] | B (key: (A)=31-95%; (B)=0-30%) | A (key: (A)=31-95%; (B)=0-30%) |  |  |
| Oc1cc(-c2ccccc2)ccc1CNC12CC3CC(CC(C3)C1)C2 [Example 47a, 4-(Adamantan-1-ylaminomethyl)-biphenyl-3-ol] |  |  | A (key: (A)=31-95%; (B)=0-30%) | B (key: (A)=31-95%; (B)=0-30%) |
| Oc1ccc(CNC23CC4CC(CC(C4)C2)C3)cc1F [Example 48, 4-(Adamantan-1-ylaminomethyl)-2-fluoro-phenol] | A (key: (A)=31-95%; (B)=0-30%) | A (key: (A)=31-95%; (B)=0-30%) |  |  |
| Oc1cc(-c2cc3ccccc3o2)ccc1CNC12CC3CC(CC(C3)C1)C2 [Example 48a] |  |  | B (key: (A)=31-95%; (B)=0-30%) | B (key: (A)=31-95%; (B)=0-30%) |
| c1cc2c(cc1CNC13CC4CC(CC(C4)C1)C3)OCO2 [Example 49] | B (key: (A)=31-95%; (B)=0-30%) | B (key: (A)=31-95%; (B)=0-30%) |  |  |
| COc1cc(CNC23CC4CC(CC(C4)C2)C3)ccc1O [Example 50, 4-(Adamantan-1-ylaminomethyl)-2-methoxy-phenol] | B (key: (A)=31-95%; (B)=0-30%) | A (key: (A)=31-95%; (B)=0-30%) |  |  |
| Cc1cc(CNC23CC4CC(CC(C4)C2)C3)ccc1O [Example 51, 4-(Adamantan-1-ylaminomethyl)-2-methyl-phenol] | B (key: (A)=31-95%; (B)=0-30%) | B (key: (A)=31-95%; (B)=0-30%) |  |  |
| O=[N+]([O-])c1cc(CNC23CC4CC(CC(C4)C2)C3)ccc1O [Example 52, 4-(Adamantan-1-ylaminomethyl)-2-nitro-phenol] | B (key: (A)=31-95%; (B)=0-30%) | A (key: (A)=31-95%; (B)=0-30%) |  |  |
| OCc1cc(Br)ccc1CNC12CC3CC(CC(C3)C1)C2 [Example 52a, [2-(Adamantan-1-ylaminomethyl)-5-bromo-phenyl]methanol] |  |  | B (key: (A)=31-95%; (B)=0-30%) | B (key: (A)=31-95%; (B)=0-30%) |
| Oc1c(CNC23CC4CC(CC(C4)C2)C3)ccc2ccccc12 [Example 53a, 2-(Adamantan-1-ylaminomethyl)-naphthalen-1-ol] |  |  | A (key: (A)=31-95%; (B)=0-30%) | B (key: (A)=31-95%; (B)=0-30%) |
| Fc1ccc(CNC23CC4CC(CC(C4)C2)C3)c(F)c1 [Example 54, Adamantan-1-yl-(2,4-difluoro-benzyl)-amine] | B (key: (A)=31-95%; (B)=0-30%) | B (key: (A)=31-95%; (B)=0-30%) |  |  |
| CSc1ccc(CNC23CC4CC(CC(C4)C2)C3)c(SC)c1 [Example 55, Adamantan-1-yl-(2,4-bis-methylsulfanyl-benzyl)-amine] | B (key: (A)=31-95%; (B)=0-30%) | B (key: (A)=31-95%; (B)=0-30%) |  |  |
| COc1cc(O)ccc1CNC12CC3CC(CC(C3)C1)C2 [Example 56, 4-(Adamantan-1-ylaminomethyl)-3-methoxy-phenol] | B (key: (A)=31-95%; (B)=0-30%) | B (key: (A)=31-95%; (B)=0-30%) |  |  |
| c1ccc2nc(CNC34CC5CC(CC(C5)C3)C4)ccc2c1 [Example 56a, Adamantan-1-yl-quinolin-2-ylmethyl-amine] |  |  | A (key: (A)=31-95%; (B)=0-30%) | B (key: (A)=31-95%; (B)=0-30%) |
| Oc1cc(OCc2ccccc2)ccc1CNC12CC3CC(CC(C3)C1)C2 [Example 57, 2-(Adamantan-1-ylaminomethyl)-5-benzyloxy-phenol] | A (key: (A)=31-95%; (B)=0-30%) | B (key: (A)=31-95%; (B)=0-30%) |  |  |
| Oc1ccc(CNC23CC4CC(CC(C4)C2)C3)c(Cl)c1 [Example 58, 4-(Adamantan-1-ylaminomethyl)-3-chloro-phenol] | B (key: (A)=31-95%; (B)=0-30%) | A (key: (A)=31-95%; (B)=0-30%) |  |  |
| COc1ccc(CNC23CC4CC(CC(C4)C2)C3)c(OC)c1 [Example 59, Adamantan-1-yl-(2,4-dimethoxy-benzyl)-amine] | B (key: (A)=31-95%; (B)=0-30%) | B (key: (A)=31-95%; (B)=0-30%) |  |  |
| CC(=O)Oc1ccc(CNC23CC4CC(CC(C4)C2)C3)c(O)c1 [Example 60, Acetic acid 4-(adamantan-1-ylaminomethyl)-3-hydroxy-phenyl ester] | A (key: (A)=31-95%; (B)=0-30%) | B (key: (A)=31-95%; (B)=0-30%) |  |  |
| c1coc(-c2ccc(CNC34CC5CC(CC(C5)C3)C4)cn2)c1 [Example 60a, N-((6-(furan-2-yl)pyridin-3-yl)methyl)adamantan-1-amine] |  |  | A (key: (A)=31-95%; (B)=0-30%) | B (key: (A)=31-95%; (B)=0-30%) |
| COc1ccc(CNC23CC4CC(CC(C4)C2)C3)cc1O [Example 61, 5-(Adamantan-1-ylaminomethyl)-2-methoxy-phenol] | B (key: (A)=31-95%; (B)=0-30%) | A (key: (A)=31-95%; (B)=0-30%) |  |  |
| c1csc(-c2ncc(CNC34CC5CC(CC(C5)C3)C4)cn2)c1 [Example 61a, N-((2-(thiophen-2-yl)pyrimidin-5-yl)methyl)adamantan-1-amine] |  |  | A (key: (A)=31-95%; (B)=0-30%) | B (key: (A)=31-95%; (B)=0-30%) |
| Fc1ccc(C(F)(F)F)cc1CNC12CC3CC(CC(C3)C1)C2 [Example 62, Adamantan-1-yl-(2-fluoro-5-trifluoromethyl-benzyl)-amine] | B (key: (A)=31-95%; (B)=0-30%) | B (key: (A)=31-95%; (B)=0-30%) |  |  |
| c1coc(-c2ncc(CNC34CC5CC(CC(C5)C3)C4)cn2)c1 [Example 62a, N-((2-(furan-2-yl)pyrimidin-5-yl)methyl)adamantan-1-amine] |  |  | A (key: (A)=31-95%; (B)=0-30%) | B (key: (A)=31-95%; (B)=0-30%) |
| Oc1cccc(CNC23CC4CC(CC(C4)C2)C3)c1O [Example 64, 3-(Adamantan-1-ylaminomethyl)-benzene-1,2-diol] | B (key: (A)=31-95%; (B)=0-30%) | A (key: (A)=31-95%; (B)=0-30%) |  |  |
